Measurements as given in ChEMBL document CHEMBL1201862, “PubChem BioAssay data set” (2004).
Calls of active or inactive are those of the source.

What was measured:
[1] = target: Paired box protein Pax-8 (Homo sapiens, UniProt Q06710); experiment: PAX8 transcriptional activity inhibition in RMG-I – RMG-I cells, luciferase, cherry-pick, dose response (AID 687027); assay type: functional, cell-based;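 note: luciferase reporter driven by Pax8 target thyroperoxidase promoter measured by SteadyGlo luminescence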
Paired box protein Pax-8, sequence (Q06710 whole entry): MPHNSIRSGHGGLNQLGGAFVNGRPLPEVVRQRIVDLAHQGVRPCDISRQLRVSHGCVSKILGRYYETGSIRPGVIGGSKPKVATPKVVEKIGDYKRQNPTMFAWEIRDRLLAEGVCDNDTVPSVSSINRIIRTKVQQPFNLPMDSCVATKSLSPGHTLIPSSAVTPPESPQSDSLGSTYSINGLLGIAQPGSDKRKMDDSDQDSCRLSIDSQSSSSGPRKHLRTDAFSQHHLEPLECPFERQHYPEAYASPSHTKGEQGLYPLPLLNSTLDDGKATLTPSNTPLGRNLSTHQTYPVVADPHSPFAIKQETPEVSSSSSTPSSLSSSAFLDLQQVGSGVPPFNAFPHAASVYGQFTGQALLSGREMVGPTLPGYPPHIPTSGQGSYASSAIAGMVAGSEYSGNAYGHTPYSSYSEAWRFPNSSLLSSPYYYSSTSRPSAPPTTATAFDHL

[2] = tested on: BJ; experiment: BJ-TERT fibroblast viability loss – cell-based, RAS-independent, luminescence, dose response (AID 1933); assay type: functional, Homo sapiens; settings: Homo sapiens, BJ
[3] = DRD fibroblast viability loss – cell-based, non-viral oncogenic, luminescence, dose response (AID 1934); assay type: functional; settings: Homo sapiens
[4] = cells; assay type: functional, cell-based
[5] = luciferase reporter signal reduction – luminescence, H4-C neuroglioblastoma cells, dose response (AID 2458); assay type: functional, cell-based;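 note: H4 neuroglioblastoma cells stably carrying a luciferase reporter gene fusion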
[6] = target: Nuclear receptor subfamily 0 group B member 1 (Homo sapiens, UniProt P51843); assay type: functional, cell-based;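 note: HEK293T cells transfected with SF-1 and DAX-1 plus StAR promoter luciferase reporter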
Nuclear receptor subfamily 0 group B member 1, sequence (P51843 whole entry): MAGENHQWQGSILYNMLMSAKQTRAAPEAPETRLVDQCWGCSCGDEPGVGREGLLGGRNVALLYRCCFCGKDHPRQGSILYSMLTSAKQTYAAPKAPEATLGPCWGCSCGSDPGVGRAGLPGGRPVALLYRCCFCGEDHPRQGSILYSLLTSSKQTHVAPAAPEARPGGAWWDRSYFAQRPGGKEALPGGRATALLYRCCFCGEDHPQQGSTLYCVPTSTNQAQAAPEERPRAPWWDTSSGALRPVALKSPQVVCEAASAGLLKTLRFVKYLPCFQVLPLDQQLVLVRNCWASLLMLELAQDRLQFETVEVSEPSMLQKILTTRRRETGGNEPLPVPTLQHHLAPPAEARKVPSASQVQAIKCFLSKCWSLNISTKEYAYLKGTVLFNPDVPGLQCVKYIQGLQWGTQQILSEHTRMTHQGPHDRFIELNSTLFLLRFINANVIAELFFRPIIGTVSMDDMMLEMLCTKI

[7] = COV434 cell viability loss – plate reader, dry powder, SA7, cytotoxicity control for PAX8 inhibitor project, dose response (AID 743145); assay type: functional, cell-based
[8] = luciferase reporter signal suppression in cells – H4 neuroglioma cells, luminescence, dose response (AID 1990); assay type: functional, cell-based
[9] = tested on: BJ; experiment: cells; assay type: functional, cell-based, Homo sapiens; settings: Homo sapiens, BJ
[10] = tested on: A-375; experiment: MITF: Counter assay: A375 proliferation Measured in Cell-Based System Using Plate Reader - 2084-03_Inhibitor_Dose_DryPowder_Activity. [Related pubchem assays (depositor defined):AID488944]; assay type: functional; settings: Homo sapiens
[11] = PAX5 cellular inhibition readout – cell-based, plate reader, dry powder samples, selectivity assay for PAX8 inhibitor project, dose response (AID 743047); assay type: functional;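 note: HEK293 cells carrying a Pax5 driven CD19 promoter luciferase reporter; potency of inhibitors that lower reporter luminescence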
[12] = HEK-293T viability loss after treatment – luminescence, T-cell screen hits, cytotoxicity control for TCR NF-kB inhibitor project, dose response (AID 489026); assay type: functional, cell-based;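 note: cells exposed to compound about 14 hours before the viability readout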
[13] = OV-90 cell viability loss – plate reader, dry powder, SA8, PAX8 inhibitor project, dose response (AID 743149); assay type: functional, cell-based
[14] = alpha-synuclein stem-loop translation blockers – luminescence, H4 neuroglioblastoma cells, dose confirmation, confirmation (AID 2454); assay type: functional, cell-based;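 note: H4 neuroglioblastoma cells carrying an alpha-synuclein 5'UTR luciferase reporter; potency for inhibition of the luciferase signal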
[15] = PAX8-dependent cell viability loss – plate reader, dry powder, dose response (AID 743049); assay type: functional, cell-based
[16] = tested on: A-375; experiment: proliferation inhibition in MITF-low A375 cells – cell-based, cherry-pick samples, set 2, counter-screen for MITF modulator project, dose response (AID 540335); assay type: functional; settings: Homo sapiens
[17] = OVCAR4 cell viability loss – plate reader, dry powder, SA11, cytotoxicity control for PAX8 inhibitor project, dose response (AID 743150); assay type: functional, cell-based; settings: OVCAR-4
[18] = alpha-synuclein stem-loop luciferase translation blockers – H4 neuroglioma cells, luminescence, confirmation (AID 1988); assay type: functional, cell-based
[19] = cells; assay type: functional, cell-based; remark: listed apart in the source
[20] = inhibitors acting on PAX2 in cells – cell-based, plate reader, dry powder samples, selectivity assay for PAX8 inhibitor project, dose response (AID 743048); assay type: functional;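 note: HEK293 cells carrying a WT1 promoter luciferase reporter driven by expressed Pax2; potency is for inhibition of Pax2 driven reporter signal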
[21] = A2780 cell killing – plate reader, dry powder samples, cytotoxicity control, dose response (AID 743046); assay type: functional, cell-based
[22] = toxicity toward immortalized ovarian surface epithelium – cell-based, plate reader, dry powder samples, cytotoxicity control for PAX8 inhibitor project, dose response (AID 743045); assay type: functional
[23] = Luminescence Cell-Based Dose Response HTS to Identify Inhibitors of 5'UTR Stem-Loop Driven Prion Protein mRNA Translation in H4 Neuroglioblastoma Cells. [Related pubchem assays: 1827 (Project Summary), 1813 (Primary HTS)]; assay type: functional
[24] = COV362 cell viability loss – plate reader, dry powder, SA12, cytotoxicity control for PAX8 inhibitor project, dose response (AID 743144); assay type: functional, cell-based
[25] = IGROV1 cell killing – plate reader, dry powder samples, PAX8 inhibitor project, dose response (AID 743043); assay type: functional, cell-based; settings: IGROV-1
[26] = target: T1, Microphthalmia-associated transcription factor (Homo sapiens, UniProt O75030); experiment: reducers of TRPM1 reporter luminescence, concentration series – cell-based, SK-MEL-5, cherry-picked, set 3, MITF inhibitor project, dose response (AID 493073); assay type: functional;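 note: SK-MEL-5 melanoma cells with luciferase driven by the MITF target TRPM1 promoter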
T1 sequence (O75030 whole entry): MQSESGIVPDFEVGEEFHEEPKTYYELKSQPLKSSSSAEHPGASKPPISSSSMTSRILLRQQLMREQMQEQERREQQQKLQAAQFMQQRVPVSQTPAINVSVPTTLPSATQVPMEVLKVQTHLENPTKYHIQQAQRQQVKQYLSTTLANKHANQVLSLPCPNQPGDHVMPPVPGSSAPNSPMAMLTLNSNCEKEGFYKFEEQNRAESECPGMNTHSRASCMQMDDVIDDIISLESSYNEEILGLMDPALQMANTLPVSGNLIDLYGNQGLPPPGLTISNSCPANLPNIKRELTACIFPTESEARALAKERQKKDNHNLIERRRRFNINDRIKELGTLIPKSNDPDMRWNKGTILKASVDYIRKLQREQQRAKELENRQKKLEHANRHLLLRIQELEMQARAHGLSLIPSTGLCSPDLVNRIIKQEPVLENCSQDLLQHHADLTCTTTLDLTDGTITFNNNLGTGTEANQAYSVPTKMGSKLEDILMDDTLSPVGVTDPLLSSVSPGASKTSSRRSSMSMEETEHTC

[27] = OVCAR-3 cell viability loss – plate reader, dry powder samples, PAX8 inhibitor project, dose response (AID 743044); assay type: functional, cell-based
[28] = target: Voltage-gated inwardly rectifying potassium channel KCNH2 (Homo sapiens, UniProt Q12809); settings: Potency;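 note: confirmatory quantitative high-throughput screen measuring inhibition of hERG channel activity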
Voltage-gated inwardly rectifying potassium channel KCNH2, sequence (Q12809 whole entry): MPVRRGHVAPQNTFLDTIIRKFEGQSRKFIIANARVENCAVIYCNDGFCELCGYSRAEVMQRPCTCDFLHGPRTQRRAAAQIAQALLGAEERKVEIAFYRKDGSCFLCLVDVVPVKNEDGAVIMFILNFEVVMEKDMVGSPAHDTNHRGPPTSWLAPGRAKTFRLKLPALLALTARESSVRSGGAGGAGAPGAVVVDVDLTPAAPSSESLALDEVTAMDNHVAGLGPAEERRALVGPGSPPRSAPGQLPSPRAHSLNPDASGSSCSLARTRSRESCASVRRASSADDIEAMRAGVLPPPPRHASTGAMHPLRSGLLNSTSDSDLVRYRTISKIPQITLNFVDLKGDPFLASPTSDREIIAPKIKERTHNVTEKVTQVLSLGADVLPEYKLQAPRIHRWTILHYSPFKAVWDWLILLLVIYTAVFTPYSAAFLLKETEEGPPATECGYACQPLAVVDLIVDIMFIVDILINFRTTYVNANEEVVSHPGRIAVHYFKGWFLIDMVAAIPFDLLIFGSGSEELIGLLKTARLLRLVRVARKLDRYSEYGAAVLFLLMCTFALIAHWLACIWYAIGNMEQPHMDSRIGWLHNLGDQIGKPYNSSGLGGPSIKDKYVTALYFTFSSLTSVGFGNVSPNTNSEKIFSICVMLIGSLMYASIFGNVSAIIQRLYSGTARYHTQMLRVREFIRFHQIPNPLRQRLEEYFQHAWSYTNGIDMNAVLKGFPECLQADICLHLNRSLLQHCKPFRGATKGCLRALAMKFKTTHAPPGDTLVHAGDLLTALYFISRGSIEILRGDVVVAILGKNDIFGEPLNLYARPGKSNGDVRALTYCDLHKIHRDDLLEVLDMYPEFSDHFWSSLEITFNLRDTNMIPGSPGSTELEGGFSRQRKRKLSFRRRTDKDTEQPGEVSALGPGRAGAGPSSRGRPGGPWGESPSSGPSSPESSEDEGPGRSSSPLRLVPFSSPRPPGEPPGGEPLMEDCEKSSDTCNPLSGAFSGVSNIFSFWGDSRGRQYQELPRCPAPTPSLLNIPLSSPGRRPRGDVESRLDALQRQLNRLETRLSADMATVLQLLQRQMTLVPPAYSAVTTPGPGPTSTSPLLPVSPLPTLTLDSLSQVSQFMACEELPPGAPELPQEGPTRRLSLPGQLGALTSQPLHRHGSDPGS

[29] = target: Heat shock protein HSP 90-alpha (Homo sapiens, UniProt P07900); assay type: functional, organism-based
[30] = target: Glucose-6-phosphate 1-dehydrogenase (Homo sapiens, UniProt P11413); experiment: inhibition of Homo sapiens G6PD, dose series – biochemical, fluorescence, selectivity assay for P. falciparum G6PD inhibitor project, dose response (AID 504792); assay type: functional
Glucose-6-phosphate 1-dehydrogenase, sequence (P11413 whole entry): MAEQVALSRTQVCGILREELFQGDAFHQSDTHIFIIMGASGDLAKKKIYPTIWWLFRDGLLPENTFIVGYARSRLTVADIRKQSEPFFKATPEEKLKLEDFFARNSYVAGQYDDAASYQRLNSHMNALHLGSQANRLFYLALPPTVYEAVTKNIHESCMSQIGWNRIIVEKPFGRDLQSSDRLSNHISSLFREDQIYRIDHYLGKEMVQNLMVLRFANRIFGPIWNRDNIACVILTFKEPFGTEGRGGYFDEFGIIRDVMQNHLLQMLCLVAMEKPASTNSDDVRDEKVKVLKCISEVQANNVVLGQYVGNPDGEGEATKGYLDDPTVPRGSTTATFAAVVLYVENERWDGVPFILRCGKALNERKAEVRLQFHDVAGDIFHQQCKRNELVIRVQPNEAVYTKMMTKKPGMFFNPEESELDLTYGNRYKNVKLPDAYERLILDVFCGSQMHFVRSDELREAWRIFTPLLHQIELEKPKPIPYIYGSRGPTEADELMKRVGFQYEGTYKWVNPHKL

[31] = microbe, parasite or virus in culture; assay type: functional; settings: Mycobacterium tuberculosis
[32] = target: T2, Endoribonuclease toxin MazF (Escherichia coli K-12, UniProt P0AE70); experiment: substrate-only fluorescence increase artefacts – biochemical, single-stranded RNase substrate, counter-screen for MazEF activator project, dose response (AID 588502); assay type: functional
T2 sequence (P0AE70 whole entry): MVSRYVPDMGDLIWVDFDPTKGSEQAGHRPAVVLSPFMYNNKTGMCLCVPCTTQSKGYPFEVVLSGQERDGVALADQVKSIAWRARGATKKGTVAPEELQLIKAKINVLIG

[33] = target: T2, Endoribonuclease toxin MazF; experiment: activation of MazEF endoribonuclease cleavage – biochemical, fluorescence, single-stranded RNA substrate, uHTS hits, dose response (AID 588481); assay type: functional

COc1cccc(N2CCN(C(=O)c3ccc(C[S+]([O-])c4ccccc4Cl)o3)CC2)c1 (stereo not drawn)
AC50 [1]: 921 nM (active)
EC50 [2]: 214 nM (active)
EC50 [3]: 225 nM (active)
EC50 [4]: 345 nM (active)
EC50 [5]: 202 nM (active)
IC50 [6]: > 67600 nM (inactive)
AC50 [7]: 684 nM (active)
EC50 [8]: < 100 nM (active)
EC50 [9]: 37700 nM (inconclusive)
AC50 [10]: > 35000 nM (active)
AC50 [11]: 3980 nM (active)
IC50 [12]: 58000 nM (inactive)
AC50 [13]: 2030 nM (active)
EC50 [14]: 354 nM (active)
AC50 [15]: 22000 nM (active)
AC50 [16]: > 35000 nM (active)
AC50 [17]: 646 nM (active)
EC50 [18]: < 100 nM (active)
IC50 [19]: > 67600 nM (inactive)
AC50 [20]: 37500 nM (active)
AC50 [21]: 5000 nM (active)
AC50 [22]: 537 nM (active)
EC50 [23]: < 100 nM (active)
AC50 [24]: 2030 nM (active)
AC50 [25]: 72000 nM (active)
AC50 [26]: 894 nM (active)
AC50 [27]: 478 nM (active)

CCCCCCCCn1sccc1=O
AC50 [28]: 44700 nM (inconclusive)
AC50 [29]: 649 nM (active)
IC50 [30]: 59300 nM (inactive)
CC50 [31]: 11300 nM (active)

Cc1c(C=NNC(=O)c2ccc(Br)cc2)c2ccccn2c1C(=O)c1ccncc1
EC50 [32]: > 99000 nM (inactive)
EC50 [33]: > 99000 nM (inactive)
